Assay results: US9326516B2, “Molecules having certain pesticidal utilities, and intermediates, compositions, and processes related thereto” (Dow AgroSciences LLC, priority 2014, dated 2016)

Experiments:
Format in all cases: in vivo
[1] = test system: Beet Armyworm (Spodoptera exigua, LAPHEG); experiment: Bioassay on Beet Armyworm (BAW), 128-well diet tray assay; details: 168 h, 50 μg/cm^2 on artificial diet, second instar BAW larvae, 25° C., five to seven days, average of eight wells, read-out: BAW % Control (or Mortality) rating
Protocol: (§1) Certain molecules disclosed in this document were tested against BAW and CEW using procedures described in the following examples. In the reporting of the results, the “BAW & CL Rating Table” was used (See Table Section).
Bioassays on BAW were conducted using a 128-well diet tray assay. one to five second instar BAW larvae were placed in each well (3 mL) of the diet tray that had been previously filled with 1 mL of artificial diet to which 50 μg/cm^2 of the test compound (dissolved in 50 μL of 90:10 acetone-water mixture) had been applied (to each of eight wells) and then allowed to dry. Trays were covered with a clear self-adhesive cover and held at 25° C., 14:10 light-dark for five to seven days. Percent mortality was recorded for the larvae in each well; activity in the eight wells was then averaged. The results are indicated in the table entitled “Table ABC: Biological Results” (See Table Section).

[2] = test system: Cabbage Looper (Trichoplusia ni, TRIPNI); experiment: Bioassay on Cabbage Looper (CL), 128-well diet tray assay; details: 168 h, 50 μg/cm^2 on artificial diet, second instar CL larvae, 25° C., five to seven days, average of eight wells, read-out: CL % Control (or Mortality) rating
Protocol: as §1
Bioassays on CL were conducted using a 128-well diet tray assay, one to five second instar CL larvae were placed in each well (3 mL) of the diet tray that had been previously filled with 1 mL of artificial diet to which 50 μg/cm^2 of the test compound (dissolved in 50 μL of 90:10 acetone-water mixture) had been applied (to each of eight wells) and then allowed to dry. Trays were covered with a clear self-adhesive cover and held at 25° C., 14:10 light-dark for five to seven days. Percent mortality was recorded for the larvae in each well; activity in the eight wells was then averaged. The results are indicated in the table entitled “Table ABC: Biological Results” (See Table Section).

[3] = test system: Green Peach Aphid (Myzus persicae, MYZUPE); experiment: Bioassay on Green Peach Aphid (GPA), foliar spray on cabbage seedlings; details: 72 h, 200 ppm spray on infested cabbage seedlings, graded after three days, Abbott corrected % control, read-out: GPA % Control (or Mortality) rating
Protocol: Certain molecules disclosed in this document were tested against GPA using procedures described in the following example. In the reporting of the results, the “GPA Rating Table” was used (See Table Section).
Cabbage seedlings grown in 3-inch pots, with 2-3 small (3-5 cm) true leaves, were used as test substrate. The seedlings were infested with 20-50 GPA (wingless adult and nymph stages) one day prior to chemical application. Four pots with individual seedlings were used for each treatment. Test compounds (2 mg) were dissolved in 2 mL of acetone/methanol (1:1) solvent, forming stock solutions of 1000 ppm test compound. The stock solutions were diluted 5× with 0.025% Tween 20 in water to obtain the solution at 200 ppm test compound. A hand-held aspirator-type sprayer was used for spraying a solution to both sides of […] leaves until runoff. Reference plants (solvent check) were sprayed with the diluent only containing 20% by volume of acetone/methanol (1:1) solvent. Treated plants were held in a holding room for three days at approximately 25° C. and ambient relative humidity (RH) prior to grading. Evaluation was conducted by counting the number of live aphids per plant under a microscope. Percent Control was measured by using Abbott's correction formula (W. S. Abbott, “A Method of Computing the Effectiveness of an Insecticide” J. Econ. Entomol. 18 (1925), pp. 265-267) as follows. Corrected % Control=100*(X−Y)/X where X=No. of live aphids on solvent check plants and Y=No. of live aphids on treated plants

[4] = test system: Yellow Fever Mosquito (Aedes aegypti, AEDSAE); details: about 1 day-old larvae, master plate 4000 ppm in DMSO diluted, room temperature, scored after 3 days on mortality
Protocol: Certain molecules disclosed in this document were tested against YFM using procedures described in the following paragraph. In the reporting of the results, the “YFM Rating Table” was used (See Table Section).
Master plates containing 400 μg of a molecule dissolved in 100 μL of dimethyl sulfoxide (DMSO) (equivalent to a 4000 ppm solution) are used. A master plate of assembled molecules contains 15 μL per well. To this plate, 135 μL of a 90:10 water:acetone mixture is added to each well. A robot (Biomek® NXP Laboratory Automation Workstation) is programmed to dispense 15 μL aspirations from the master plate into an empty 96-well shallow plate (“daughter” plate). There are 6 reps (“daughter” plates) created per master. The created daughter plates are then immediately infested with YFM larvae.
The day before plates are to be treated, mosquito eggs are placed in Millipore water containing liver powder to begin hatching (4 g. into 400 mL). After the daughter plates are created using the robot, they are infested with 220 μL of the liver powder/larval mosquito mixture (about 1 day-old larvae). After plates are infested with mosquito larvae, a non-evaporative lid is used to cover the plate to reduce drying. Plates are held at room temperature for 3 days prior to grading. After 3 days, each well is observed and scored based on mortality.

Row | SMILES | mortality at 50 µg/cm2 [1] [%] | mortality at 50 µg/cm2 [2] [%] | mortality at 200 ppm [3] [%] | YFM % Control (or Mortality) rating [4]
1 | FC(F)(F)Oc1ccc(-n2cnc(-c3ccc(NC4=N[C@@H](c5ccccc5)CO4)cc3)n2)cc1 [Compound F2, (S)-4-Phenyl-N-(4-(1-(4-(trifluoromethoxy)phenyl)-1H-1,2,4-triazol-3-yl)phenyl)-4,5-dihydrooxazol-2-amine] | 50 to 100 | 50 to 100 | 80 to 100 | B (More than 0-Less than 80)
2 | FC(F)(F)Oc1ccc(-n2cnc(-c3ccc(NC4=NC(c5ccc(C(F)(F)F)cc5)CO4)cc3)n2)cc1 (stereo not shown) [Compound F5, N-(4-(1-(4-(Trifluoromethoxy)phenyl)-1H-1,2,4-triazol-3-yl)phenyl)-4-(4-(trifluoromethyl)phenyl)-4,5-dihydrooxazol-2-amine] | 50 to 100 | 50 to 100 | 80 to 100 | B (More than 0-Less than 80)
3 | FC(F)(F)Oc1ccc(-n2cnc(-c3ccc(NC4=NC(c5ccccc5Cl)CO4)cc3)n2)cc1 (stereo not shown) [Compound F11, 4-(2-Chlorophenyl)-N-(4-(1-(4-(trifluoromethoxy)phenyl)-1H-1,2,4-triazol-3-yl)phenyl)-4,5-dihydrooxazol-2-amine] | 50 to 100 | 50 to 100 | 0 | D (No activity noticed in this bioassay)
4 | FC(F)(F)Oc1ccc(-n2cnc(-c3ccc(NC4=N[C@H](c5ccccc5)CCO4)cc3)n2)cc1 [Compound F20, (S)-4-Phenyl-N-(4-(1-(4-(trifluoromethoxy)phenyl)-1H-1,2,4-triazol-3-yl)phenyl)-5,6-dihydro-4H-1,3-oxazin-2-amine] | 0 | 50 to 100 | 80 to 100 | B (More than 0-Less than 80)
5 | FC(F)(F)Oc1ccc(-n2cnc(-c3ccc(NC4=NC(c5ccc(Cl)cc5)CCO4)cc3)n2)cc1 (stereo not shown) [Compound F43, 4-(4-Chlorophenyl)-N-(4-(1-(4-(trifluoromethoxy)phenyl)-1H-1,2,4-triazol-3-yl)phenyl)-5,6-dihydro-4H-1,3-oxazin-2-amine] | 0 to 50 | 50 to 100 | 80 to 100 | B (More than 0-Less than 80)
6 | Cc1ccc(C2CCOC(Nc3ccc(-c4ncn(-c5ccc(OC(F)(F)F)cc5)n4)cc3)=N2)cc1 (stereo not shown) [Compound F44, 4-(p-Tolyl)-N-(4-(1-(4-(trifluoromethoxy)phenyl)-1H-1,2,4-triazol-3-yl)phenyl)-5,6-dihydro-4H-1,3-oxazin-2-amine] | 0 to 50 | 50 to 100 | 80 to 100 | B (More than 0-Less than 80)
7 | FC(F)(F)Oc1ccc(-n2cnc(-c3ccc(NC4=NC(c5ccc(C(F)(F)F)cc5)CCO4)cc3)n2)cc1 (stereo not shown) [Compound F45, N-(4-(1-(4-(Trifluoromethoxy)phenyl)-1H-1,2,4-triazol-3-yl)phenyl)-4-(4-(trifluoromethyl)phenyl)-5,6-dihydro-4H-1,3-oxazin-2-amine] | 50 to 100 | 50 to 100 | 80 to 100 | B (More than 0-Less than 80)
